Assay results taken from patent US9615577B2, “Herbicidally active cyclic dione compounds, or derivatives therefor, substituted by a phenyl which has an alkynyl-containing substituent” (Syngenta Limited, priority 2012, dated 2017).

Legend:
Experiment in all cases: Test 1B glasshouse assay for herbicidal activity, post-emergence
Type in all cases: in vivo
Setaria faberi (SETFA) = conditions: 360 h; for pest or weed control at 60 g/ha: 60 g/ha application rate
Protocol: (§1) Seeds of a variety of monocotyledonous and dicotyledonous test plants are sown in standard soil in pots. The plants are cultivated for one day (for pre-emergence) or for about 12 days (range=10-13 days) (for post-emergence) under controlled conditions in a glasshouse (warm climate species at 24/18° C., cool climate species at 20/16° C., both at day/night; 16 hours light; 65% humidity).
(§2) An “instant formulation”, known as the “IF50”, containing 50 g/liter (i.e. 5% w/v) of the “technical” (i.e. unformulated) active ingredient is prepared by dissolving the active ingredient in a mixture of organic solvents and emulsifier, details of which are provided in the Table below. This IF50 is then mixed with a small, variable amount of acetone to aid dissolution, before addition of a 0.2% v/v aqueous solution of the adjuvant X-77 (which is a mixture of alkyl aryl polyoxyethylene glycols and free fatty acids in isopropanol, CAS Registry number 11097-66-8), as the aqueous diluent, to form an aqueous spray solution which contains a predetermined concentration of the active ingredient (which varies depending on the application rate of the active ingredient to the plants) and 0.2% v/v of the adjuvant X-77. This aqueous spray solution is then sprayed onto the plants, after one day's cultivation (for pre-emergence) or after about 12 days' cultivation (for post-emergence).
(§3) The test plants are then grown on, in a glasshouse (greenhouse) under controlled conditions (at either 24/18° C. or 20/16° C. (day/night) as mentioned above; 16 hours light; 65% humidity) and are watered twice daily. Either 15 days after application of the herbicide (15 DAA) (for post-emergence), or 20 days after application of the herbicide (20 DAA) (for pre-emergence), the test plants are evaluated visually, and an assessed percentage phytotoxicity score is given for each herbicidal application on each plant species (where 100%=total damage to plant; 0%=no damage to plant).
(§4) Warm climate (“warm season”) grassy monocotyledonous weeds: Setaria faberi (SETFA), SORVU (Sorghum bicolor (L.) Moench ssp. Bicolor, or Sorghum vulgare Pers.), Digitaria sanguinalis (DIGSA), Echinochloa crus-galli (ECHCG), and Brachiaria plantaginea (BRAPL).

[1] = system: Digitaria sanguinalis (DIGSA); conditions: 360 h; for pest or weed control at 60 g/ha: 60 g/ha application rate
Protocol: as §1, §2, §3, §4

[2] = system: Brachiaria plantaginea (BRAPL); conditions: Urochloa plantaginea; for pest or weed control at 60 g/ha: 60 g/ha application rate
Protocol: as §1, §2, §3, §4

Lolium perenne (LOLPE) = conditions: 360 h; for pest or weed control at 60 g/ha: 60 g/ha application rate
Protocol: as §1, §2, §3
(§5) Cool climate (“cool season”) grassy monocotyledonous weeds: Alopecurus myosuroides (ALOMY), Avena fatua (AVEFA), Lolium perenne (LOLPE).

Avena fatua (AVEFA) = conditions: 360 h; for pest or weed control at 60 g/ha: 60 g/ha application rate
Protocol: as §1, §2, §3, §5

[3] = system: Alopecurus myosuroides (ALOMY); conditions: 360 h; for pest or weed control at 60 g/ha: 60 g/ha application rate
Protocol: as §1, §2, §3, §5

[4] = system: Glycine max (GLXMA, soybean); conditions: 360 h; for plant injury at 60 g/ha: 60 g/ha application rate
Protocol: as §1, §2, §3
Warm climate crop plants: Glycine max (GLXMA, soybean).

[5] = system: Brassica napus (BRSNN, rape); conditions: 360 h; for plant injury at 60 g/ha: 60 g/ha application rate
Protocol: as §1, §2, §3
(§6) Cool climate crop plants: Triticum aestivum (TRZAW, winter wheat), Brassica napus (BRSNN, rape, also called oilseed rape or rapeseed), Beta vulgaris (BEAVA, sugar beet).

[6] = system: Triticum aestivum (TRZAW, winter wheat); conditions: 360 h; for plant injury at 60 g/ha: 60 g/ha application rate
Protocol: as §1, §2, §3, §6

[7] = system: Echinochloa crus-galli (ECHCG); conditions: for pest or weed control at 60 g/ha: 60 g/ha application rate
Protocol: as §1, §2, §3, §4
Note: The herbicidal activity data (e.g. post-emergence) shown above in Biological Example 1B for Comparator compounds X-9 and X-10 is thought likely to have been measured some years ago, probably using a variant of the above-described test method. Also, for the post-emergence activity of X-9 and X-10 it is not currently known exactly how many days after application of the herbicide the phytotoxicity on the plants was measured.

Row | Compound | pest or weed control at 60 g/ha (Setaria faberi (SETFA)) | pest or weed control at 60 g/ha [1] | pest or weed control at 60 g/ha [2] | pest or weed control at 60 g/ha (Lolium perenne (LOLPE)) | pest or weed control at 60 g/ha (Avena fatua (AVEFA)) | pest or weed control at 60 g/ha [3] | plant injury at 60 g/ha [4] | plant injury at 60 g/ha [5] | plant injury at 60 g/ha [6] | pest or weed control at 60 g/ha ([7]; Echinochloa crus-galli) | also measured
1 | Cc1cc(C)c(C2C(=O)C3CCC(C3)C2=O)c(C)c1 (stereo not shown) [Compound X-9, reference compound] | 80% | 70% | 80% | 0% | 0% | 20% | 0% | 0% | 0% | 40% | pest or weed control at 125 g/ha (Setaria faberi (SETFA); 125 g/ha application rate): 80%; pest or weed control at 125 g/ha ([1]; 125 g/ha application rate): 80%; pest or weed control at 125 g/ha ([2]; 125 g/ha application rate): 80%; pest or weed control at 125 g/ha (Lolium perenne (LOLPE); 125 g/ha application rate): 40%; pest or weed control at 125 g/ha (Avena fatua (AVEFA); 125 g/ha application rate): 0%; pest or weed control at 125 g/ha ([3]; 125 g/ha application rate): 40%; plant injury at 125 g/ha ([4]; 125 g/ha application rate): 0%; plant injury at 125 g/ha ([5]; 125 g/ha application rate): 20%; plant injury at 125 g/ha ([6]; 125 g/ha application rate): 0%; pest or weed control at 125 g/ha ([7]; Echinochloa crus-galli, 125 g/ha application rate): 60%
2 | CCc1cc(C)cc(CC)c1C1C(=O)C2CCC(C2)C1=O (stereo not shown) [Compound X-10, reference compound] | 100% | 100% | 90% | 70% | 50% | 80% | 0% | 0% | 20% | 70% | post-emergence activity on ECHCG compared with Compound A-5 ([7]; 60 g/ha, probably a variant of the test method, days after application not known): lower post-emergence activity
